{"source": "patent US12522596B2", "about": "“Compounds as GLP-1R agonists” (Terns Pharmaceuticals, Inc., priority 2021, dated 2026)", "test": "Pharmacokinetics in hGLP-1R mice after oral dosing", "assay_type": "in vivo, male C57BL/6J hGLP-1R mouse", "method": "IPGTT (120 min)—PK bleeding: 40 μL blood samples (all treatment groups) were collected from mice under the jaw at IPGTT-120 min after blood glucose measurement into pre-chilled EDTA-2K tubes. Blood samples were processed for plasma by centrifugation at 4° C., 3200×g for 10 min. 15 μL plasma was stored at −80° C. for PK analysis. From 4 mice in Group 7 of the PD cohort, whole brain was collected after blood is harvested at 120 min post dose, rinsed with saline and patted dry and placed into a pre-weighed tube and stored at −80° C. collected for PK analysis.\nPK bleeding group design is described in Table 9.\nPK bleeding: 30 μL blood was collected at 0.25, 0.5, 1, 2, 4, and 8 h. Blood samples were processed for plasma by centrifugation at 4° C., 3200×g for 10 min. 12 μL plasma was collected at −80° C. for further analysis. From 3 mice in Group 7 of the PK cohort, whole brain was collected after blood is harvested at 8 hr post dose, rinsed with saline and patted dry and placed into a pre-weighed tube and stored at −80° C. collected for PK analysis.\nFor plasma: An aliquot of 3 μL sample was protein precipitated with 60 μL internal standard (100 ng/mL Labetalol & 100 ng/ml Dexamethasone & 100 ng/ml Tolbutamide & 100 ng/mL Verapamil & 100 ng/ml Glyburide & 100 ng/ml Celecoxib in ACN) and then the mixture was vortex-mixed for 10 min at 800 rpm and centrifuged for 15 min at 3220×g, 4° C.\nThe linear/log trapezoidal rule was applied in obtaining the PK parameters. Individual plasma concentration values that were below the lower limit of quantitation (LOQ) were excluded from the PK parameter calculation. The nominal dose levels and nominal sampling times were used in the calculation of all pharmacokinetic parameters.", "key": {"[1]": {"conditions": "hGLP-1R mouse plasma, PO 0.3 mg/kg, individual mice, 0.3 mg/kg"}, "[2]": {"conditions": "hGLP-1R mouse plasma, PO 0.3 mg/kg, mean"}, "[3]": {"conditions": "hGLP-1R mouse plasma, PO 1 mg/kg, individual mice, 1 mg/kg"}, "[4]": {"conditions": "hGLP-1R mouse plasma, PO 1 mg/kg, mean"}, "[5]": {"conditions": "hGLP-1R mouse plasma, PO 3 mg/kg, individual mice, 3 mg/kg"}, "[6]": {"conditions": "hGLP-1R mouse plasma, PO 3 mg/kg, mean"}}, "note": "“And” between values parts separate entries of the source, which are not always exact repeats. Equal entries are not always repeated. Where two headings read alike, the source gives them in different places. Marks after values point to notes of the source that are not given here.", "data": [{"molecule": "N#Cc1ccc(COc2cccc(C3CCN(Cc4nc5ccc(C(=O)O)cc5n4Cc4cncs4)CC3)n2)c(F)c1", "note": "[Compound 2]", "values": [{"measurement": "higher AUClast than Reference Compound A", "setting": "hGLP-1R mice, PO 0.3 mg/kg", "value": "four-fold"}, {"measurement": "higher Cmax than Reference Compound A", "setting": "hGLP-1R mice, PO 0.3 mg/kg", "value": "three-fold"}, {"measurement": "higher AUClast than Reference Compound A", "setting": "hGLP-1R mice, PO 1.0 mg/kg", "value": "approximately 4.6 fold"}, {"measurement": "higher Cmax than Reference Compound A", "setting": "hGLP-1R mice, PO 1.0 mg/kg", "value": "approximately 5.7 fold"}, {"measurement": "increase in exposure values over a ten-fold increase in dose", "setting": "hGLP-1R mice, PO 0.3 to 3 mg/kg", "value": 22, "unit": "fold"}, {"measurement": "increase of exposure with dose (dose proportionality)", "setting": "hGLP-1R mice, PO, Reference Compound A 0.3-1 mg/kg, Compound 2 0.3-3 mg/kg", "value": "greater than proportional manner"}, {"measurement": "Concentration", "setting": "hGLP-1R mouse plasma collected at 120 min (IPGTT cohort), PO 0.3 mg/kg, individual animals, 0.3 mg/kg", "value": "26.1 ng/mL and 11.5 ng/mL and 15.0 ng/mL and 31.4 ng/mL and 17.3 ng/mL and 17.2 ng/mL and 13.1 ng/mL"}, {"measurement": "Concentration", "setting": "hGLP-1R mouse plasma collected at 120 min (IPGTT cohort), PO 1 mg/kg, individual animals, 1 mg/kg", "value": "61.2 ng/mL and 53.6 ng/mL and 148 ng/mL and 60.4 ng/mL and 60.3 ng/mL and 48.9 ng/mL and 56.3 ng/mL"}, {"measurement": "Concentration", "setting": "hGLP-1R mouse plasma collected at 120 min (IPGTT cohort), PO 3 mg/kg, individual animals, 3 mg/kg", "value": "159 ng/mL and 227 ng/mL and 555 ng/mL and 301 ng/mL and 239 ng/mL and 229 ng/mL and 231 ng/mL"}, {"measurement": "Concentration", "setting": "hGLP-1R mouse plasma, PO 0.3 mg/kg, 0.25 h, individual animals, 0.3 mg/kg", "value": "66.8 ng/mL and 116 ng/mL and 52.2 ng/mL"}, {"measurement": "Concentration", "setting": "hGLP-1R mouse plasma, PO 0.3 mg/kg, 0.5 h, individual animals, 0.3 mg/kg", "value": "60.3 ng/mL and 118 ng/mL"}, {"measurement": "Concentration", "setting": "hGLP-1R mouse plasma, PO 0.3 mg/kg, 1 h, individual animals, 0.3 mg/kg", "value": "49.2 ng/mL and 55.8 ng/mL"}, {"measurement": "Concentration", "setting": "hGLP-1R mouse plasma, PO 0.3 mg/kg, 2 h, individual animals, 0.3 mg/kg", "value": "18.2 ng/mL and 6.53 ng/mL and 7.14 ng/mL"}, {"measurement": "Concentration", "setting": "hGLP-1R mouse plasma, PO 0.3 mg/kg, 4 h, individual animals, 0.3 mg/kg", "value": "7.15 ng/mL and 1.84 ng/mL and 2.23 ng/mL"}, {"measurement": "Concentration", "setting": "hGLP-1R mouse plasma, PO 0.3 mg/kg, 8 h, individual animals, 0.3 mg/kg", "value": "1.64 ng/mL and BQL"}, {"measurement": "AUC0-inf", "setting": "[1]", "value": "90.4 ng·h/mL and 120 ng·h/mL"}, {"measurement": "AUC0-last", "setting": "[1]", "value": "87.0 ng·h/mL and 117 ng·h/mL"}, {"measurement": "AUCExtra", "setting": "[1]", "value": "5.66% and 3.76% and 1.86%"}, {"measurement": "AUMCExtra", "setting": "[1]", "value": "25.0% and 22.4% and 10.0%"}, {"measurement": "Cmax", "setting": "[1]", "value": "66.8 ng/mL and 118 ng/mL"}, {"measurement": "MRT0-inf", "setting": "[1]", "value": "2.49 h and 1.69 h and 0.928 h"}, {"measurement": "MRT0-last", "setting": "[1]", "value": "1.98 h and 1.36 h and 0.851 h"}, {"measurement": "T1/2", "setting": "[1]", "value": "2.08 h and 1.44* h and 0.691* h"}, {"measurement": "Tlast", "setting": "[1]", "value": "8.00 h (2×) and 4.00 h"}, {"measurement": "Tmax", "setting": "[1]", "value": 0.250, "unit": "h"}, {"measurement": "AUCExtra", "setting": "[2]", "value": 3.76, "unit": "%"}, {"measurement": "AUMCExtra", "setting": "[2]", "value": 19.1, "unit": "%"}, {"measurement": "Concentration", "setting": "hGLP-1R mouse plasma, PO 1 mg/kg, 0.25 h, individual animals, 1 mg/kg", "value": "208 ng/mL and 224 ng/mL"}, {"measurement": "Concentration", "setting": "hGLP-1R mouse plasma, PO 1 mg/kg, 0.5 h, individual animals, 1 mg/kg", "value": "256 ng/mL and 265 ng/mL"}, {"measurement": "Concentration", "setting": "hGLP-1R mouse plasma, PO 1 mg/kg, 1 h, individual animals, 1 mg/kg", "value": "183 ng/mL and 156 ng/mL"}, {"measurement": "Concentration", "setting": "hGLP-1R mouse plasma, PO 1 mg/kg, 2 h, individual animals, 1 mg/kg", "value": "77.6 ng/mL and 36.6 ng/mL and 31.7 ng/mL"}, {"measurement": "Concentration", "setting": "hGLP-1R mouse plasma, PO 1 mg/kg, 4 h, individual animals, 1 mg/kg", "value": "8.59 ng/mL and 6.36 ng/mL"}, {"measurement": "Concentration", "setting": "hGLP-1R mouse plasma, PO 1 mg/kg, 8 h, individual animals, 1 mg/kg", "value": "4.90 ng/mL and 6.23 ng/mL and 3.07 ng/mL"}, {"measurement": "Tlast", "setting": "hGLP-1R mouse plasma, PO 1 mg/kg, individual mice", "value": 8.00, "unit": "h"}, {"measurement": "AUC0-inf", "setting": "[3]", "value": "366 ng·h/mL and 326 ng·h/mL"}, {"measurement": "AUC0-last", "setting": "[3]", "value": "352 ng·h/mL and 320 ng·h/mL"}, {"measurement": "AUCExtra", "setting": "[3]", "value": "1.78% and 3.97% and 1.84%"}, {"measurement": "AUMCExtra", "setting": "[3]", "value": "11.9% and 22.6% and 12.9%"}, {"measurement": "Cmax", "setting": "[3]", "value": "256 ng/mL and 265 ng/mL"}, {"measurement": "MRT0-inf", "setting": "[3]", "value": "1.81 h and 1.42 h"}, {"measurement": "MRT0-last", "setting": "[3]", "value": "1.46 h and 1.26 h"}, {"measurement": "T1/2", "setting": "[3]", "value": "1.62* h and 1.36* h"}, {"measurement": "AUCExtra", "setting": "[4]", "value": 2.53, "unit": "%"}, {"measurement": "AUMCExtra", "setting": "[4]", "value": 15.8, "unit": "%"}, {"measurement": "Tlast", "setting": "[4]", "value": 8.00, "unit": "h"}, {"measurement": "Concentration", "setting": "hGLP-1R mouse plasma, PO 3 mg/kg, 0.25 h, individual animals, 3 mg/kg", "value": "823 ng/mL and 1030 ng/mL and 2870 ng/mL"}, {"measurement": "Concentration", "setting": "hGLP-1R mouse plasma, PO 3 mg/kg, 0.5 h, individual animals, 3 mg/kg", "value": "982 ng/mL and 937 ng/mL and 3450 ng/mL"}, {"measurement": "Concentration", "setting": "hGLP-1R mouse plasma, PO 3 mg/kg, 1 h, individual animals, 3 mg/kg", "value": "592 ng/mL and 387 ng/mL and 1990 ng/mL"}, {"measurement": "Concentration", "setting": "hGLP-1R mouse plasma, PO 3 mg/kg, 2 h, individual animals, 3 mg/kg", "value": "157 ng/mL and 100 ng/mL and 655 ng/mL"}, {"measurement": "Concentration", "setting": "hGLP-1R mouse plasma, PO 3 mg/kg, 4 h, individual animals, 3 mg/kg", "value": "48.1 ng/mL and 35.1 ng/mL and 170 ng/mL"}, {"measurement": "Tlast", "setting": "hGLP-1R mouse plasma, PO 3 mg/kg, individual mice", "value": 8.00, "unit": "h"}, {"measurement": "AUC0-inf", "setting": "[5]", "value": "1923 ng·h/mL and 1229 ng·h/mL and 4707 ng·h/mL"}, {"measurement": "AUC0-last", "setting": "[5]", "value": "1497 ng·h/mL and 1154 ng·h/mL and 4673 ng·h/mL"}, {"measurement": "AUCExtra", "setting": "[5]", "value": "22.2% and 6.12% and 0.710%"}, {"measurement": "AUMCExtra", "setting": "[5]", "value": "63.8% and 30.6% and 4.74%"}, {"measurement": "Cmax", "setting": "[5]", "value": "982 ng/mL and 1030 ng/mL and 3450 ng/mL"}, {"measurement": "MRT0-inf", "setting": "[5]", "value": "4.39 h and 2.08 h and 1.46 h"}, {"measurement": "MRT0-last", "setting": "[5]", "value": 1.54, "unit": "h"}, {"measurement": "T1/2", "setting": "[5]", "value": "3.21* h and 1.68* h and 1.19 h"}, {"measurement": "Tmax", "setting": "[5]", "value": 0.250, "unit": "h"}, {"measurement": "AUCExtra", "setting": "[6]", "value": 9.68, "unit": "%"}, {"measurement": "AUMCExtra", "setting": "[6]", "value": 33.0, "unit": "%"}, {"measurement": "Tlast", "setting": "[6]", "value": 8.00, "unit": "h"}, {"measurement": "AUC(0-t)", "setting": "male, C57BL/6J hGLP-1R, mouse, plasma, po, 0.3 mg/kg, hGLP-1R mice, total, PO 0.3 mg/kg, read-out: AUClast Mean", "value": 107, "unit": "ng·h/mL"}, {"measurement": "Cmax", "setting": "male, C57BL/6J hGLP-1R, mouse, plasma, po, 0.3 mg/kg, hGLP-1R mice, total, PO 0.3 mg/kg, read-out: Cmax Mean", "value": 82.7, "unit": "ng/mL"}, {"measurement": "half-life", "setting": "male, C57BL/6J hGLP-1R, mouse, plasma, po, 0.3 mg/kg, hGLP-1R mice, total, PO 0.3 mg/kg, read-out: T1/2 (converted)", "value": 1.4, "unit": "h"}, {"measurement": "Tmax", "setting": "male, C57BL/6J hGLP-1R, mouse, plasma, po, 0.3 mg/kg, hGLP-1R mice, total, PO 0.3 mg/kg, read-out: Tmax Median", "value": 0.5, "unit": "h"}, {"measurement": "concentration at 120 min", "setting": "male, C57BL/6J hGLP-1R, mouse, plasma, po, 0.3 mg/kg, hGLP-1R mouse plasma collected at 120 min (IPGTT cohort), PO 0.3 mg/kg, read-out: Mean Concentration", "value": 18.8, "unit": "ng/mL"}, {"measurement": "concentration at 0.25 h", "setting": "male, C57BL/6J hGLP-1R, mouse, plasma, po, 0.3 mg/kg, hGLP-1R mouse plasma, PO 0.3 mg/kg, 0.25 h, read-out: Mean Concentration", "value": 78.3, "unit": "ng/mL"}, {"measurement": "concentration at 0.5 h", "setting": "male, C57BL/6J hGLP-1R, mouse, plasma, po, 0.3 mg/kg, hGLP-1R mouse plasma, PO 0.3 mg/kg, 0.5 h, individual animals, read-out: Concentration", "value": 63.4, "unit": "ng/mL"}]}]}
